B1: MBNL1: muscleblind-like 1 protein, RNA splicing regulator (protein, UniProt Q9NR56 1-388, looked up)
Muscleblind-like protein 1: MAVSVTPIRDTKWLTLEVCREFQRGTCSRPDTECKFAHPSKSCQVENGRVIACFDSLKGRCSRENCKYLHPPPHLKTQLEINGRNNLIQQKNMAMLAQQMQLANAMMPGAPLQPVPMFSVAPSLATNASAAAFNPYLGPVSPSLVPAEILPTAPMLVTGNPGVPVPAAAAAAAQKLMRTDRLEVCREYQRGNCNRGENDCRFAHPADSTMIDTNDNTVTVCMDYIKGRCSREKCKYFHPPAHLQAKIKAAQYQVNQAAAAQAAATAAAMTQSAVKSLKRPLEATFDLGIPQAVLPPLPKRPALEKTNGATAVFNTGIFQYQQALANMQLQQHTAFLPPVPMVHGATPATVSAATTSATSVPFAATATANQIPIISAEHLTSHKYVTQM

Key:
r(CUG)12×2 = conditions: read-out: r(CUG)12×2 Kd; data taken from a previous report; cited from earlier work
r(CUG)10-MBNL1 complex = experiment: qTR-FRET assay, disruption of pre-formed r; format: biochemical; conditions: read-out: IC50 for r(CUG)-MBNL1, pre-formed r(CUG)10-MBNL1 complex, displacement
tRNA = experiment: RNA binding assay; set-up: species or system yeast; conditions: read-out: tRNA Kd

Row | Molecule | Kd (r(CUG)12×2) [nM] | IC50 (r(CUG)10-MBNL1 complex) [nM] | Kd (tRNA) [nM]
1 | NC1C(O)[C@H](OC2[C@H](N)CC(N)[C@@H](O[C@H]3OC(CNC(=O)CCCc4cn(CCCNC(=S)Nc5ccc(-c6c7ccc(=O)cc-7oc7cc(O)ccc67)c(C(=O)O)c5)nn4)[C@@H](O)[C@H](O)C3O)[C@@H]2O)OC(CO)[C@@H]1O (stereo partly shown) [FITC-K] | 1000 ± 250 | > 250000 | > 10000
2 | B1 | 250 | – | –
